From US8637536B2, “Pyrimidinone compounds for use in the treatment of diseases or conditions mediated by Lp-PLA2” (Glaxo Group Limited, priority 2010, dated 2014) come the findings set out here.

Structures are written as SMILES. Where two headings read alike, the source gives them in different places.

For assay [1], the system named is proinflammatory (M1) and anti-inflammatory (M2) markers in macrophages. The assay is described as follows: EAE model (MBP immunization), ex vivo realtime PCR analysis of M1 and M2 macrophage markers. In kind it is in vivo, rats. The following applies: macrophages ex vivo (splenic, day 13 post MBP-immunization; CNS infiltrating cells), compound treated vs control. On the procedure: A further study was carried out to study the impact of Lp-PLA2 inhibitors on modulating M1/M2 imbalance. In this study, rats were induced to develop experimental autoimmune encephalomyelitis (EAE) by immunization with myelin basic protein (MBP) antigen and treated with a known Lp-PLA2 inhibitor: 549-Methoxy-4-oxo-6,7-dihydro-4H-pyrimido[6,1-a]isoquinolin-2-yl)oxy)-2-(3-(trifluoromethyl)phenoxy)benzonitrile (See PCT application no. PCT/CN2011/001597) For preventive treatment, compound administration started at day 0 whereas it started at 7 day in therapeutic treatment. Rats were subsequently monitored for symptoms of EAE. Rats were immunized with MBP to develop EAE and symptoms were monitored daily. Plasma Lp-PLA2 activity and LysoPC concentration were determined at different time points through the course of EAE.
Ex vivo analysis of proinflammatory (M1) and anti-inflammatory (M2) markers in control and compound treated EAE […]. Splenic macrophages were harvested at day 13 post MBP-immunization and assayed for expression of a variety of markers by realtime PCR. CNS infiltrating cells were harvested and macrophages were analyzed for expression of M1 and M2 markers by realtime PCR.

In assay [2] the target is T1, recombinant human Lp-PLA2 (Homo sapiens, UniProt Q13093).
T1 sequence (Q13093 22-441): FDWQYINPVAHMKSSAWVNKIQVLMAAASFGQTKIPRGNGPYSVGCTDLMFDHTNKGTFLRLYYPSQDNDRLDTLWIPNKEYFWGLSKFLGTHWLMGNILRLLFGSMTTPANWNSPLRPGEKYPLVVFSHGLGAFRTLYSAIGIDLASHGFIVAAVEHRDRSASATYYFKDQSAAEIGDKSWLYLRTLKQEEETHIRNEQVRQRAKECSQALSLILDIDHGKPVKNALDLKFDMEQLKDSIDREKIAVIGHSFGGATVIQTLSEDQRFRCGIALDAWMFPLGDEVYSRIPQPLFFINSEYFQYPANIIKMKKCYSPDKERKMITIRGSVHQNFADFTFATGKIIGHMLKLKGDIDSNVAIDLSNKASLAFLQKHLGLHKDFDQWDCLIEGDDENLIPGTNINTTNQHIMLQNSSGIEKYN
The assay is described as follows: Recombinant human Lp-PLA2 assay (rhLp-PLA2, PED6 assay). In kind it is biochemical. From the text: (1) Recombinant Human Lp-PLA2 Assay (rhLp-PLA2) (Also Referred to as “PED6” Assay)
N-((6-(2,4-dinitrophenyl)amino)-hexanoyl)-2-(4,4-difluoro-5,7-dimethyl-4-bora-3a,4a-diaza-s-indacene-3-pentanoyl)-1-hexadecanoyl-sn-glycero-3-phosphoethanolamine, triethylammonium salt (PED6) is a commercially available fluorescently-labelled phospholipid, which is commercially available from Molecular Probes. There is a quenching […] position and a Bodipy fluorescein (FL) group in the sn2 position.
The PED6 assay was run as an unquenched 10 μL assay. Compounds source plate was prepared by making 1:3 (by volume) serial dilution of the compounds into pure DMSO on 384-well microplate. […] 5 μL of recombinant human Lp-PLA2 enzyme (2 nM rhLp-PLA2 in assay buffer of 50 mM HEPES, pH7.4, 150 mM NaCl, 1 mM CHAPS) was added to each well of the plate with compounds. Plates were centrifuged for 10 sec at 500 rpm. […] Plates were centrifuged for 10 sec at 500 rpm. Plate was covered to protect from light and incubated for 20 min at room temperature. […] PIC50 data, curve and QC analysis was conducted by using XL fit module in Excel.

Assay [3] has as its target T2, Lp-PLA2 from plasma (pooled human plasma) (Homo sapiens, UniProt Q13093).
T2 construct: 8 μL pooled human plasma; from tissue; host or cells: pooled human plasma
T2 sequence (Q13093 22-441): T1 sequence (Q13093 22-441)
Put plainly: Lp-PLA2 human plasma assay (Thio-PAF assay). In kind it is biochemical. The conditions noted are these: text thresholds, read-out: pIC50 values in the thio-PAF assay (converted). From the text: (3) Lipoprotein-Associated Phospholipase A2 (Lp-PLA2) Human Plasma Assay (Also Referred to as “Thio-PAF Assay”)
The human plasma assay utilizes a thioester analog of PAF (phosphatidylcholine), where hydrolysis yields to the formation of a phospholipid containing a free thiol group. The amount of thiol is quantitated continuously by reacting with CPM (7-diethylamino-3-(4′-maleimidylphenyl)-4-methylcoumarin), a maleimide which increases in fluoresence after Michael addition of thiols. This assay may detect the activity of Lp-PLA2 from plasma, as determined by specific inhibition by Lp-PLA2 inhibitors.
The thio-PAF assay was run as a quenched 15 μL assay. Compounds source plate was prepared by making 1:3 (by volume) serial dilution of the compounds into pure DMSO on 384-well microplate. 0.01 μL of compounds on compound source plate were transferred to 384 well Greiner 784076 (black) low-volume plates by ECHO liquid dispenser. 8 μL pooled human plasma, which was previously aliquoted and frozen, was added. Plates were centrifuged for 10 sec at 500 rpm. After 30 minutes preincubation, 2 μL of substrate (2.5 mM thio-PAF, 3.2 mM NEM (N-ethylmaleimide) [made fresh daily in DMSO], and 32 μM CPM [from a DMSO stock] in assay buffer of 50 mM HEPES, pH7.4, 150 mM NaCl, 1 mM CHAPS was added to 384 well Greiner 784076 (black) low-volume plates by BRAVO liquid handling station. Plates were centrifuged for 10 sec at 500 rpm. Plate was covered to protect from light and incubated for 2 min at room temperature. Reaction was quenched with 5 μL of 5% aqueous trifluoroacetic acid (TFA). Plates were covered to protect from light and incubated for 40 min at room temperature. Plates were read at ex: 380/em: 485 using-Envision microplate reader. PIC50 data, curve and QC analysis was conducted by using XLFit module in Excel.

Where [4] appears, read: text thresholds, upper limit for pIC50 in this assay is 9.3, read-out: pIC50 values in the PED6 assay (converted).
The mark [5] stands for this setting: upper limit for pIC50 obtained in this PED6 assay is 9.3, read-out: rhLp-PLA2 (PED6 assay) (pIC50) (converted).

As to `COc1ccc2c(c1)CCn1c-2cc(Oc2ccc(Oc3cccc(C(F)(F)F)c3)c(C#N)c2)nc1=O`, in assay [1], the “M1 markers (expression by realtime PCR)” value was “decrease” and the “M2 markers (expression by realtime PCR)” value was “increase”.
Turning to `COc1ncc(Cc2c[nH]c(OCCc3ccc(Oc4ccc(Cl)c(C(F)(F)F)n4)cc3)nc2=O)cn1` [E161, 2-(4-((5-chloro-6-(trifluoromethyl)pyridin-2-yl)oxy)phenethoxy)-5-((2-methoxypyrimidin-5-yl)methyl)pyrimidin-4(1H)-one], the IC50 in assay [2] (setting [4]) was ≤ 10 nM; in assay [3], ≤ 1000 nM.
In the case of `Cn1cc(Cc2c[nH]c(OCCc3ccc(Oc4cc(Cl)cc(C(F)(F)F)c4)cc3)nc2=O)cn1` [E162, 2-{[2-(4-{[3-chloro-5-(trifluoromethyl)phenyl]oxy}phenyl)ethyl]oxy}-5-[(1-methyl-1H-pyrazol-4-yl)methyl]-4(1H)-pyrimidinone], the IC50 in assay [2] (setting [4]) was ≤ 10 nM; in assay [3] it was ≤ 100 nM.
The matching figures for `COc1ncc(Cc2c[nH]c(OCCc3ccc(Oc4ccc(Cl)c(C(F)(F)F)c4)c(F)c3)nc2=O)cn1` [E172, 2-{[2-(4-{[4-chloro-3-(trifluoromethyl)phenyl]oxy}-3-fluorophenyl)ethyl]oxy}-5-{[2-(methyloxy)-5-pyrimidinyl]methyl}-4(1H)-pyrimidinone]: ≤ 1 nM and ≤ 100 nM.
For `O=c1nc(NCCc2ccc(Oc3ccc(F)cc3)cc2)[nH]cc1Cc1cncnc1` [E188, 2-{2-[4-(4-Fluoro-phenoxy)-phenyl]-ethylamino}-5-pyrimidin-5-ylmethyl-1H-pyrimidin-4-one], the IC50 in assay [2] (setting [4]) is ≤ 10 nM; in assay [3], ≤ 100 nM.
For `Cc1ncc(Cc2c[nH]c(NCCc3ccc(Oc4ccc(Cl)c(C(F)(F)F)c4)cc3)nc2=O)cn1` [E195, 2-{2-[4-(4-Chloro-3-trifluoromethyl-phenoxy)-phenyl]-ethylamino}-5-(2-methyl-pyrimidin-5-ylmethyl)-1H-pyrimidin-4-one], in that order: ≤ 10 nM and ≤ 100 nM.
With `CN(CCc1ccc(Oc2ccc(Cl)c(C(F)(F)F)c2)cc1)c1nc(=O)c(Cc2cncnc2)cn1C` [E196, 2-({2-[4-(4-Chloro-3-trifluoromethyl-phenoxy)-phenyl]-ethyl}-methyl-amino)-1-methyl-5-pyrimidin-5-ylmethyl-1H-pyrimidin-4-one], the IC50 was ≤ 10 nM in assay [2] (setting [4]) and ≤ 1000 nM in assay [3].
For `COc1ncc(Cc2c[nH]c(NCCc3ccc(Oc4ccc(C(F)(F)F)cn4)c(C#N)c3)nc2=O)cn1` [E202, 5-{2-[5-(2-methoxy-pyrimidin-5-ylmethyl)-4-oxo-1,4-dihydro-pyrimidin-2-yl]-amino}-ethyl-2-(5-trifluoromethyl-pyridin-2-yloxy)benzonitrile], the results for the IC50 in assay [2] (setting [4]), in assay [2] (setting [5]) and in assay [3] were ≤ 10 nM, 7.94 nM and ≤ 100 nM, respectively.
As for `O=c1nc(NCCc2ccc(Oc3ccc(C(F)(F)F)cc3)cc2)[nH]cc1Cc1cncnc1` [E204], the values for the IC50 in assay [2] (setting [4]) and in assay [3] were ≤ 10 nM and ≤ 100 nM, respectively.
With `N#Cc1cc(CCNc2nc(=O)c(Cc3cncnc3)c[nH]2)ccc1Oc1ccc(C(F)(F)F)cn1` [E205, 5-[2-(4-oxo-5-pyrimidin-5-ylmethyl-1,4-dihydro-pyrimidin-2-ylamino)-ethyl]-2-(5-trifluoromethyl-pyridin-2-yloxy)benzonitrile], the IC50 in assay [2] (setting [4]) was ≤ 10 nM; in assay [3] it was ≤ 1000 nM.
For `COc1ncc(Cc2c[nH]c(NCCc3ccc(Oc4ccc(C(F)(F)F)c(Cl)c4)cc3)nc2=O)cn1` [E206, 2-{2-[4-(3-chloro-4-trifluoromethyl-phenoxy)-phenyl]ethylamino}-5-(2-methoxy-pyrimidin-5-ylmethyl)-1H-pyrimidin-4-one], the values for the IC50 in assay [2] (setting [4]) and in assay [3] were ≤ 10 nM and ≤ 1000 nM, respectively.
On to `Cc1ccc(Cc2c[nH]c(NCCc3ccc(Oc4ccc(Cl)c(C(F)(F)F)c4)cc3)nc2=O)cn1` [E210, 2-{2-[4-(4-Chloro-3-trifluoromethyl-phenoxy)-phenyl]-ethylamino}-5-(6-methyl-pyridin-3-ylmethyl)-1H-pyrimidin-4-one], for which the IC50 in assay [2] (setting [4]) was ≤ 10 nM; in assay [3], ≤ 100 nM.
Take `O=c1ccc(Cc2c[nH]c(NCCc3ccc(Oc4ccc(Cl)c(C(F)(F)F)c4)cc3)nc2=O)c[nH]1` [E212, 2-{2-[4-(4-Chloro-3-trifluoromethyl-phenoxy)-phenyl]-ethylamino}-5-(6-oxo-1,6-dihydro-pyridin-3-ylmethyl)-1H-pyrimidin-4-one]: the IC50 in assay [2] (setting [4]) was ≤ 10 nM; in assay [2] (setting [5]) it was 6.31 nM; in assay [3], ≤ 100 nM.
Consider `O=c1nc(NCCc2ccc(Oc3ccc(Cl)c(C(F)(F)F)c3)cc2)[nH]cc1Cc1ccnnc1` [E214, 2-{2-[4-(4-chloro-3-trifluoromethyl-phenoxy)-phenyl]ethylamino}-5-pyridazin-4-ylmethyl-1H-pyrimidin-4-one], for which the IC50 in assay [2] (setting [4]) was ≤ 10 nM; in assay [3], ≤ 100 nM.
As for `O=c1cc(Cc2c[nH]c(NCCc3ccc(Oc4ccc(Cl)c(C(F)(F)F)c4)cc3)nc2=O)cc[nH]1` [E216, 2-{2-[4-(4-Chloro-3-trifluoromethyl-phenoxy)-phenyl]-ethylamino}-5-(2-oxo-1,2-dihydro-pyridin-4-ylmethyl)-1H-pyrimidin-4-one], the IC50 was ≤ 10 nM in assay [2] (setting [4]), 3.16 nM in assay [2] (setting [5]) and ≤ 1000 nM in assay [3].
